Drawing on article PMC2843614, “Protein engineering of conger eel galectins by tracing of molecular evolution using probable ancestral mutants” (BMC Evolutionary Biology, 2010), this text covers Kd for six molecules.

Like-named read-outs stand apart in the source and are kept apart here.

Experiment in all cases: frontal affinity chromatography (FAC)
Assay [1] concerns the target T1, Con-anc (probable ancestral form of congerins).
T1 construct: recombinant from plasmid pTV-Con-anc in Escherichia coli JM109; differs from ConI at 31 residues; purified by HCl-treated Sepharose 4B and HiTrap Q
The assay is classed as binding, synthetic construct. The note with it: labelled compound (pyridylaminated sugar). The source says: frontal affinity chromatography (FAC) on Con-anc (probable ancestral form of congerins)

The next assay deals with T2, congerin I (ConI) (Conger myriaster, UniProt P26788).
T2 construct: full length, 136 residues (natural form N-acetylated); proto-type galectin, dimer
T2 sequence (P26788 whole entry): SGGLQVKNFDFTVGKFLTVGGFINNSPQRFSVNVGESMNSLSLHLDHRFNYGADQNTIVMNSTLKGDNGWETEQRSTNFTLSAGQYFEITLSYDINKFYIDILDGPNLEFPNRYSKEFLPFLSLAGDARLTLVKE
The assay is classed as binding. The source says: frontal affinity chromatography (FAC) on congerin I (ConI)

The next assay deals with T3, congerin II (ConII) (Conger myriaster, UniProt Q9YIC2).
T3 construct: full length, 135 residues (natural form N-acetylated); proto-type galectin, dimer
T3 sequence (Q9YIC2 2-136): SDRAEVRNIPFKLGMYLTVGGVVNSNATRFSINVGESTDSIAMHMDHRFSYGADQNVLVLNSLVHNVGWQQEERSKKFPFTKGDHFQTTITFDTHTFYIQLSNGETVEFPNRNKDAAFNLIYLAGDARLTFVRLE
The assay is classed as binding. From the text:
frontal affinity chromatography (FAC) on congerin II (ConII)

The mark [2] stands for this setting: labelled compound (pyridylaminated sugar).

For `CC(=O)N[C@H]1[C@H](O[C@H]2[C@@H](O)[C@@H](CO)O[C@@H](O[C@@H]([C@H](O)[C@@H](O)CNc3ccccn3)[C@H](O)CO)[C@@H]2O)O[C@H](CO)[C@@H](O[C@@H]2O[C@@H](C)[C@@H](O)[C@@H](O)[C@@H]2O)[C@@H]1O[C@@H]1O[C@H](CO)[C@H](O)[C@H](O)[C@H]1O` [compound 44], the Kd in assay [1] worked out at 55 µM; in assay [1] (read-out: Con-anc-L5 / Kd) it was 3.9 µM; at congerin I (ConI) it was 4.4 µM; at congerin II (ConII), 24 µM.
Consider GM3 (NeuGc) [compound 30], for which the figures for the Kd (in assay [1]; at congerin II (ConII) (setting [2])) were 196 µM and 66 µM, respectively.
Consider `CC(=O)N[C@H]1[C@H](O[C@H]2[C@@H](O)[C@@H](CO)O[C@@H](O[C@@H]([C@H](O)[C@@H](O)CNc3ccccn3)[C@H](O)CO)[C@@H]2O)O[C@H](CO)[C@@H](O[C@@H]2O[C@@H](C)[C@@H](O)[C@@H](O)[C@@H]2O)[C@@H]1O[C@@H]1O[C@H](CO)[C@H](O)[C@H](O)[C@H]1O[C@@H]1O[C@@H](C)[C@@H](O)[C@@H](O)[C@@H]1O` [compound 46], for which the figures for the Kd (in assay [1]; on congerin I (ConI); at congerin II (ConII)) were 44 µM, 9.4 µM and 37 µM, respectively.
Take `CC(=O)N[C@H]1[C@H]([C@H](O)[C@H](O)CO)OC(O[C@H]2[C@@H](O)[C@@H](CO)O[C@@H](O[C@@H]([C@H](O)[C@@H](O)CNc3ccccn3)[C@H](O)CO)[C@@H]2O)(C(=O)O)C[C@@H]1O` (stereo partly drawn) [compound 29]: the Kd in assay [1] worked out at 242 µM; at congerin II (ConII) (setting [2]), 51 µM.
As for `CC(=O)N[C@H]1[C@H](O[C@H]2[C@@H](O)[C@@H](CO)O[C@@H](O[C@@H]([C@H](O)[C@@H](O)CNc3ccccn3)[C@H](O)CO)[C@@H]2O)O[C@H](CO)[C@@H](O[C@@H]2O[C@H](CO)[C@H](O)[C@H](O)[C@H]2O)[C@@H]1O[C@@H]1O[C@@H](C)[C@@H](O)[C@@H](O)[C@@H]1O` [compound 45, LNFP-III], the Kd was 171 µM in assay [1], 13 µM on congerin I (ConI) and 122 µM at congerin II (ConII).
For the molecule A-heptasaccharide [compound 48], the Kd in assay [1] was found to be 56 µM; in assay [1] (read-out: Con-anc-N/C/L5 / Kd), 2.5 µM; on congerin I (ConI) (setting [2]), 17 µM; on congerin II (ConII) (setting [2]), 42 µM.
